Reference: patent US12221419B2, “Abietanes and methods of making and using the same” (Florida State University Research Foundation, Incorporated., priority 2022, dated 2025)

Assays:
[1] = molecular target: T1, farnesyl diphosphate synthase (Homo sapiens, UniProt P14324); settings: statement from cited literature (ref. 28); cited from earlier work
T1 sequence (P14324 1-419): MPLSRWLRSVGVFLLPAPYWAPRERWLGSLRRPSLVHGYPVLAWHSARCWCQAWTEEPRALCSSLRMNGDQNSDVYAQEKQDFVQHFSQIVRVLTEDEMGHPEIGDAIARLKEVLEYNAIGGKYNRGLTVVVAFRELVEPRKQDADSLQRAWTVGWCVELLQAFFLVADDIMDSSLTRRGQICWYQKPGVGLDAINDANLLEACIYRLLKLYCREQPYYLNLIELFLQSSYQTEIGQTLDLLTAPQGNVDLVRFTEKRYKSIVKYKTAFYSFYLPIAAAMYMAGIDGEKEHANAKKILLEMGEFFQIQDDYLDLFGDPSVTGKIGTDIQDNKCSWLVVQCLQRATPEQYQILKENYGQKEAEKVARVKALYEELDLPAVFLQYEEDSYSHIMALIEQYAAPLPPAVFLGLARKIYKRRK

glioblastoma cells = test: activity in glioblastoma cell culture (3D 'tumor' cell growth, FIG. 6); type: cell-based; settings: 3D 'tumor' cells, comparator alendronate
Excerpt: With entry to fully synthetic abietanes in hand, we explored the activity of taxodione (FL-1) and several synthetic analogs (FL-2 and FL-3) in glioblastoma cell culture (FIG. 6). […] Nevertheless, it is clear that a synthetic entry to bioactive molecules that inhibit glioblastoma cell growth has been established. This is a particularly important application because glioblastoma is an invasive brain cancer with a 5-year mean survival rate of only 5.5%. There are few effective treatments beyond surgery and ionizing radiation. Thus, new therapy modalities are urgently needed.

CC(C)C1=CC2=CC(=O)[C@H]3C(C)(C)CCC[C@]3(C)C2=C(O)C1=O (racemic) [FL-1, (±)-taxodione]
inhibitor of farnesyl diphosphate synthase [1]: inhibitor of farnesyl diphosphate synthase | arresting 3D 'tumor' cell growth / inhibiting glioblastoma cell growth (glioblastoma cells): superior to alendronate
